# Test results: patent US20220389019A1, “TrkB POSITIVE ALLOSTERIC MODULATORS” (Université de Strasbourg, priority 2019, published 2022)
# System: TrkB
# Assay: TrkB phosphorylation assay: potentiation of BDNF-induced TrkB phosphorylation in cortical neurons
# Assay type: cell-based
# Conditions: potentation at a PAM concentration of 10 nM of 0.4 nM BDNF-induced TrkB phosphorylation in cortical neurons
# From the text: It is meant by “positive allosteric modulator” (PAM), also known as allosteric enhancer or potentiator, a compound that induces an amplification of the effect of receptor's response to the primary ligand without directly activating the receptor. Within this invention, PAM TrkB activity is related to the potentation of BDNF effects on the functional activity of the TrkB receptor, measured in vitro or in vivo by mean of a specific TrkB receptor phosphorylation assay.
# In Vitro Activity of LIT-TB Derivatives in a TrkB Phosphorylation Assay
row,Structure (SMILES),PAM TrkB activity
1,"O=C(CCc1nnc2ccc(N3CCCCC3)nn12)NC1CCN(Cc2ccccc2)CC1 [LIT-TB002, N-(1-benzylpiperidin-4-yl)-3-[6-(piperidin-1-yl)-[1,2,4]triazolo[4,3-b]pyridazin-3-yl]propanamide]",++ (++: 20-35%)
2,"O=C(CCc1nnc2ccc(N3CCC(N4CCCCC4)CC3)nn12)NC1CCN(Cc2ccccc2)CC1 [LIT-TB003, 3-(6-([1,4′-bipiperidin]-1′-yl)-[1,2,4]triazolo[4,3-b]pyridazin-3-yl)-N-(1-benzylpiperidin-4-yl) propanamide]",++ (++: 20-35%)
3,"O=C(CCc1nnc2ccc(N3CCN(c4ncccn4)CC3)nn12)NC1CCN(Cc2ccccc2)CC1 [LIT-TB004, N-(1-benzylpiperidin-4-yl)-3-(6-(4-(pyrimidin-2-yl)piperazin-1-yl)-[1,2,4]triazolo[4,3-b]pyridazin-3-yl)propanamide]",+ (+: <20%)
4,O=C(CCc1nnc2ccc(N3CCN(Cc4ccccc4)CC3)nn12)NC1CCN(Cc2ccccc2)CC1 [LIT-TB005],+++ (+++: >35%)
5,"CN1CCN(c2ccc3nnc(CCC(=O)NC4CCN(Cc5ccccc5)CC4)n3c2)CC1 [LIT-TB006, N-(1-benzylpiperidin-4-yl)-3-(6-(4-methylpiperazin-1-yl)-[1,2,4]triazolo[4,3-a]pyridin-3-yl)propanamide]",+++ (+++: >35%)
6,"CN1CCN(c2ccc3ncc(CCC(=O)NC4CCN(Cc5ccccc5)CC4)n3c2)CC1 [LIT-TB013, N-(1-benzylpiperidin-4-yl)-3-(6-(4-methylpiperazin-1-yl)imidazo[1,2-a]pyridin-3-yl)propanamide]",+++ (+++: >35%)
7,"CN1CCN(c2ccc3ncc(CCC(=O)NC4CCN(Cc5ccccc5)CC4)n3n2)CC1 [LIT-TB014, N-(1-benzylpiperidin-4-yl)-3-(6-(4-methylpiperazin-1-yl)imidazo[1,2-b]pyridazin-3-yl)propanamide]",++ (++: 20-35%)
8,"CN1CCN(c2ccc3nnc(CCCNC4CCN(Cc5ccccc5)CC4)n3n2)CC1 [LIT-TB015, 1-benzyl-N-(3-(6-(4-methylpiperazin-1-yl)-[1,2,4]triazolo[4,3-b]pyridazin-3-yl)propyl)piperidin-4-amine]",+++ (+++: >35%)
9,"CN1CCC(NC(=O)CCc2nnc3ccc(N4CCN(C)CC4)nn23)CC1 [LIT-TB016, 3-[6-(4-methylpiperazin-1-yl)-[1,2,4]triazolo[4,3-b]pyridazin-3-yl]-N-(1-methyl-piperidin-4-yl)propanamide]",+++ (+++: >35%)
10,"COc1ccc(CN2CCC(NC(=O)CCc3nnc4ccc(N5CCN(C)CC5)nn34)CC2)cc1 [LIT-TB017, N-{1-[(4-methoxyphenyl)methyl]piperidin-4-yl}-3-[6-(4-methylpiperazin-1-yl)-[1,2,4]triazolo [4,3-b]pyridazin-3-yl]propanamide]",+++ (+++: >35%)
11,"CN1CCN(c2ccc3nnc(CCC(=O)NC4CCN(Cc5cccc(Cl)c5)CC4)n3n2)CC1 [LIT-TB018, N-{1-[(3-chlorophenyl)methyl]piperidin-4-yl}-3-[6-(4-methylpiperazin-1-yl)-[1,2,4]triazolo[4,3-b]pyridazin-3-yl]propanamide]",+++ (+++: >35%)
12,"CN1CCN(c2ccc3nnc(CCC(=O)NC4CCN(Cc5ccccc5Cl)CC4)n3n2)CC1 [LIT-TB019, N-{1-[(2-chlorophenyl)methyl]piperidin-4-yl}-3-[6-(4-methylpiperazin-1-yl)-[1,2,4]triazolo[4,3-b]pyridazin-3-yl]propanamide]",+++ (+++: >35%)
13,"CN1CCN(c2ccc3nnc(CCC(=O)NC4CCN(Cc5ccc(F)cc5)CC4)n3n2)CC1 [LIT-TB020, N-{1-[(4-fluorophenyl)methyl]piperidin-4-yl}-3-[6-(4-methylpiperazin-1-yl)-[1,2,4]triazolo[4,3-b]pyridazin-3-yl]propanamide]",+++ (+++: >35%)
